Test results reported in patent US11505575B2, “Cyclic polypeptides for PCSK9 inhibition” (Merck Sharp & Dohme LLC, priority 2018, dated 2022).
*1 amine or outer side, *2 acyl side, *3 side chain or, on linkers, in order; H or OH if unused. Where a SMILES comes first, the peptide text is derived from it. Bridges are numbered along the chain shown (N, C = ends). [ ]: non-standard residue; d: D form. 3Aminoazetidine3carboxyl = O=C(C1(N[*:1])CN([*:3])C1)[*:2]; Trp(7-aza) = N[C@@H](Cc1c[nH]c2ncccc12)C(=O)O; mXylylene(5-F) = Fc1cc(C[*:1])cc(C[*:2])c1; X2 = O=C(CCSCc1cccc(CSCCN[*:1])c1)[*:2]; 1Nal = N[C@@H](Cc1cccc2ccccc12)C(=O)O; mXylylene = c1cc(C[*:1])cc(C[*:2])c1; aThr = C[C@H](O)[C@H](N)C(=O)O; αMeOrn = C[C@](N)(CCCN)C(=O)O; Chg = N[C@H](C(=O)O)C1CCCCC1; Tle = CC(C)(C)[C@H](N)C(=O)O; αMeK = C[C@](N)(CCCCN)C(=O)O; αMeV = CC(C)[C@](C)(N)C(=O)O; Nva = CCC[C@H](N)C(=O)O; Aib = CC(C)(N)C(=O)O; Mpa = O=C(O)CCS

How the values were obtained:
PCSK9 = molecular target: T1, PCSK9 (Homo sapiens, UniProt Q8NBP7); experiment: PCSK9 Alexa FRET Standard assay (displacement of AlexaFluor647-tagged cyclic peptide Reagent A); type: binding; details: 0.5 nM PCSK9, 20 nM AF cyclic peptide Reagent A
T1 construct: biotin (biotinylated)
T1 sequence (Q8NBP7 153-692): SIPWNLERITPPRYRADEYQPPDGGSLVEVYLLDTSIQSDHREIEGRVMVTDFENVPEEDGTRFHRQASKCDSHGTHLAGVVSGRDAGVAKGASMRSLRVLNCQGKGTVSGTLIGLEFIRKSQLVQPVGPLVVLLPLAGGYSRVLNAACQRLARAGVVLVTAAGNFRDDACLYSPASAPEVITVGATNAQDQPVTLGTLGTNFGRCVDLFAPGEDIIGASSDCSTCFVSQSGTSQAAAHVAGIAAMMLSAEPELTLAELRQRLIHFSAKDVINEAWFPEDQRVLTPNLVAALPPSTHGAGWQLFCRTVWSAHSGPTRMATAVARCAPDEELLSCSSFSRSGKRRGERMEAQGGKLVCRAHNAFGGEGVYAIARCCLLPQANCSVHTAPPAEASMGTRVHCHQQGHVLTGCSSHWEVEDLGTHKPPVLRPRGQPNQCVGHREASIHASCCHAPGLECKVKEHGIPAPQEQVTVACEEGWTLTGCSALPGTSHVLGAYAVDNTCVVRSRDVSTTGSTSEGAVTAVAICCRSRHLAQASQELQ
Protocol: A solution containing 1 nM biotinylated PCSK9+2.5 nM Lance Streptavidin Europium (Strep-Eu) was made in 50 mM HEPES pH 7.4, 0.15 M NaCl, 5 mM CaCl2, 0.01% BSA, and 0.01% Surfactant P20. A separate solution containing 40 nM of the AlexaFluor tagged cyclic peptide was made in the same buffer system. An Echo was used to transfer 0.750 ul of compound to an assay plate followed by the addition of 15 ul of PCSK9+Stept-Eu and 15 ul of AF peptide. The final assay volume was 30.750 ul containing 0.5 nM PCSK9, 1.25 nM Strep-Eu, and 20 nM AF cyclic peptide. The reaction was incubated at room temperature for at least two hours prior to fluorescence measurements using an Envision Multilabel Reader. IC50 values were determined by fitting data to a sigmoidal dose-response curve using nonlinear regression. Ki was then calculated from the IC50 and the KD of AF cyclic peptide. Counts (B-counts) of the europium-labeled PCSK9 were followed to observe if compounds were […]. A fall off of the B-counts likely indicated a false positive of inhibition. Data from this procedure was reported as “A=‘numerical value’ (nanomolar)”

[1] = molecular target: human PCSK9 / human LDLR EGFa domain interaction (Homo sapiens, UniProt Q8NBP7); experiment: TR-FRET assay of inhibition of the PCSK9-LDLR protein-protein interaction; type: binding; details: 20 nM biotinylated human PCSK9 + 20 nM his-tagged human LDLR EGFa domain, 2 hours room temperature
Sequence of human PCSK9 / human LDLR EGFa domain interaction (Q8NBP7 153-692): as above
Sequence of human PCSK9 / human LDLR EGFa domain interaction (Q8NBP7 31-152 partner limits assumed): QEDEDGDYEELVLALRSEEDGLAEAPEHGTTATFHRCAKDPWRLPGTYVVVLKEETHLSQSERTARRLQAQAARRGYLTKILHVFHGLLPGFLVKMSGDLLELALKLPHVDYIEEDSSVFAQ
Protocol: A time-resolved fluorescence resonance energy (TR-FRET) assay was used to measure inhibition of the PCSK9-LDLR protein-protein interaction. Briefly, 20 nM avitag-biotinylated human PCSK9 was incubated with 20 nM his-tagged human LDLR EGFa domain in the presence of 5 nM LANCE Ulight Streptavidin (Perkin Elmer) and 5 nM europium-Anti-6×His (Perkin Elmer) for 2 hours covered at room temperature in buffer containing 50 mM HEPES, 150 mM NaCl, 5 mM CaCl2, 0.01% BSA and 0.01% Surfactant P20. Compounds were tested in dose-response and concentrations giving half-maximal inhibition calculated using a 4-parameter fit equation.

SMILES	IC50 (PCSK9)	IC50 [1]
CC(C)[C@]1(C)NC(=O)[C@H](Cc2ccc(O)cc2)NC(=O)[C@H](C)NC(=O)C(C)(C)NC(=O)[C@H](Cc2c[nH]c3ncccc23)NC(=O)[C@H]([C@@H](C)O)NC(=O)[C@@H]2CCCN2C(=O)[C@H](Cc2ccc(O)cc2)NC(=O)[C@H](C(C)(C)C)NC(=O)CCSCc2cccc(c2)CSC[C@@H](C(N)=O)NC(=O)[C@H](CCCCN)NC1=O [Compound 019] ([Mpa][Tle]YPT[Trp(7-aza)][Aib]AY[αMeV]KC-NH2; linker 1-12 via mXylylene)	1000 to 12100 nM	21000 to 50000 nM
CC(C)[C@]1(C)NC(=O)[C@H](Cc2ccc(O)cc2)NC(=O)[C@H](CCC(=O)O)NC(=O)C(C)(C)NC(=O)[C@H](Cc2c[nH]c3ncccc23)NC(=O)[C@H]([C@@H](C)O)NC(=O)[C@@H]2CCCN2C(=O)[C@H](Cc2ccc(O)cc2)NC(=O)[C@H](C(C)(C)C)NC(=O)CCSCc2cccc(c2)CSC[C@@H](C(N)=O)NC(=O)[C@H]([C@H](C)O)NC1=O [Compound 020] ([Mpa][Tle]YPT[Trp(7-aza)][Aib]EY[αMeV][aThr]C-NH2; linker 1-12 via mXylylene)	1000 to 12100 nM	21000 to 50000 nM
CC(=O)N[C@H]1CSCc2cc(F)cc(c2)CSC[C@@H](C(N)=O)NC(=O)[C@H]([C@@H](C)O)NC(=O)[C@](C)(C(C)C)NC(=O)[C@H](Cc2ccc(O)cc2)NC(=O)[C@H](C)NC(=O)C(C)(C)NC(=O)[C@H](Cc2c[nH]c3ncccc23)NC(=O)[C@H]([C@@H](C)O)NC(=O)[C@@H]2CCCN2C(=O)[C@H](Cc2ccc(O)cc2)NC(=O)[C@H](C(C)(C)C)NC1=O [Compound 026] (Ac-C[Tle]YPT[Trp(7-aza)][Aib]AY[αMeV]TC-NH2; linker 1-12 via mXylylene(5-F))	1 to 100 nM	
CC(=O)N[C@H]1CSCc2cccc(c2)CSC[C@H](C(N)=O)NC(=O)[C@H]([C@@H](C)O)NC(=O)[C@](C)(C(C)C)NC(=O)[C@H](Cc2ccc(O)cc2)NC(=O)[C@H](C)NC(=O)C(C)(C)NC(=O)[C@H](Cc2c[nH]c3ncccc23)NC(=O)[C@H]([C@H](C)O)NC(=O)[C@@H]2CCCN2C(=O)[C@H](Cc2ccc(O)cc2)NC(=O)[C@H](C(C)(C)C)NC1=O [Compound 029] (Ac-C[Tle]YP[aThr][Trp(7-aza)][Aib]AY[αMeV]T[dC]-NH2; linker 1-12 via mXylylene)	100 to 1000 nM	
CC(=O)N[C@H]1CSCc2cccc(c2)CSC[C@H](C(N)=O)NC(=O)[C@H]([C@@H](C)O)NC(=O)[C@](C)(C(C)C)NC(=O)[C@H](Cc2ccc(O)cc2)NC(=O)[C@H](C)NC(=O)[C@](C)(CCCN)NC(=O)[C@H](Cc2c[nH]c3ncccc23)NC(=O)[C@H]([C@@H](C)O)NC(=O)[C@@H]2CCCN2C(=O)[C@H](Cc2ccc(O)cc2)NC(=O)[C@H](C(C)(C)C)NC1=O [Compound 033] (Ac-C[Tle]YPT[Trp(7-aza)][αMeOrn]AY[αMeV]T[dC]-NH2; linker 1-12 via mXylylene)	1 to 100 nM	
CC(=O)N[C@H]1CSCc2cccc(c2)CSC[C@H](C(N)=O)NC(=O)[C@H]([C@@H](C)O)NC(=O)[C@](C)(C(C)C)NC(=O)[C@H](Cc2ccc(O)cc2)NC(=O)[C@H](C)NC(=O)C2(CNC2)NC(=O)[C@H](Cc2c[nH]c3ncccc23)NC(=O)[C@H]([C@@H](C)O)NC(=O)[C@@H]2CCCN2C(=O)[C@H](Cc2ccc(O)cc2)NC(=O)[C@H](C(C)(C)C)NC1=O [Compound 038] (Ac-C[Tle]YPT[Trp(7-aza)][3Aminoazetidine3carboxyl]AY[αMeV]T[dC]-NH2; linker 1-12 via mXylylene)	1 to 100 nM	

Further lines, results first:

IC50 (PCSK9)	IC50 [1]	SMILES
1 to 100 nM	1 to 100 nM	CCC[C@H](NC(=O)[C@H](CCCCN)NC(C)=O)C(=O)N[C@H]1CSCc2cccc(c2)CSC[C@@H](C(N)=O)NC(=O)[C@H]([C@@H](C)O)NC(=O)[C@H](C2CCCCC2)NC(=O)[C@H](Cc2c[nH]c3ncccc23)NC(=O)[C@H](Cc2cnc[nH]2)NC(=O)[C@H](CCC(=O)O)NC(=O)[C@H](Cc2c[nH]c3ncccc23)NC(=O)[C@H]([C@@H](C)O)NC(=O)[C@@H]2CCCN2C(=O)[C@H](Cc2ccc(O)cc2)NC(=O)[C@H](C(C)(C)C)NC1=O [Compound 002] (Ac-K[Nva]C[Tle]YPT[Trp(7-aza)]EH[Trp(7-aza)][Chg]TC-NH2; linker 3-14 via mXylylene)
1 to 100 nM	100 to 1000 nM	CC1O[C@@H](C)[C@@H]2NC(=O)[C@@]1(C)NC(=O)[C@H](Cc1ccc(O)cc1)NC(=O)[C@H](C)NC(=O)C(C)(C)NC(=O)[C@H](Cc1c[nH]c3ncccc13)NC(=O)[C@H]([C@@H](C)O)NC(=O)[C@@H]1CCCN1C(=O)[C@H](Cc1ccc(O)cc1)NC(=O)[C@H](C(C)(C)C)NC(=O)CCSCc1cccc(c1)CSC[C@@H](C(N)=O)NC2=O (stereo partly drawn) [Compound 017]
1 to 100 nM	1 to 100 nM	CC(C)[C@]1(C)NC(=O)[C@H](Cc2ccc(O)cc2)NC(=O)[C@H](C)NC(=O)C(C)(C)NC(=O)[C@H](Cc2c[nH]c3ncccc23)NC(=O)[C@H]([C@@H](C)O)NC(=O)[C@@H]2CCCN2C(=O)[C@H](Cc2ccc(O)cc2)NC(=O)[C@H](C(C)(C)C)NC(=O)CCSCc2cccc(c2)CSC[C@@H](C(N)=O)NC(=O)[C@H](CO)NC1=O [Compound 018] ([Mpa][Tle]YPT[Trp(7-aza)][Aib]AY[αMeV]SC-NH2; linker 1-12 via mXylylene)
1 to 100 nM	100 to 1000 nM	CC(C)[C@@H]1NC(=O)CCSCc2cccc(c2)CSCCNC(=O)[C@H](C)NC(=O)[C@](C)(C(C)C)NC(=O)[C@H](Cc2ccccc2)NC(=O)[C@H](C)NC(=O)C(C)(C)NC(=O)[C@H](Cc2cccc3ccccc23)NC(=O)[C@H]([C@@H](C)O)NC(=O)[C@@H]2CCCN2C(=O)[C@H](Cc2ccccc2)NC1=O [Compound 021] (cyclo([1Nal][Aib]AF[αMeV]A[X2]VFPT))
1 to 100 nM	100 to 1000 nM	CCC[C@@H]1NC(=O)[C@H](Cc2cccc3ccccc23)NC(=O)[C@H]([C@@H](C)O)NC(=O)[C@@H]2CCCN2C(=O)[C@H](Cc2ccccc2)NC(=O)[C@H](C(C)C)NC(=O)CCSCc2cccc(c2)CSCCNC(=O)[C@H](C)NC(=O)[C@](C)(C(C)C)NC(=O)[C@H](Cc2ccccc2)NC(=O)[C@H](C)NC1=O [Compound 022] (cyclo([1Nal][Nva]AF[αMeV]A[X2]VFPT))
1 to 100 nM	1 to 100 nM	CC(C)[C@]1(C)NC(=O)[C@H](Cc2ccc(O)cc2)NC(=O)[C@H](C)NC(=O)[C@](C)(CCCCN)NC(=O)[C@H](Cc2c[nH]c3ncccc23)NC(=O)[C@H]([C@@H](C)O)NC(=O)[C@@H]2CCCN2C(=O)[C@H](Cc2ccc(O)cc2)NC(=O)[C@H](C(C)(C)C)NC(=O)CCSCc2cccc(c2)CSC[C@@H](C(N)=O)NC(=O)[C@H]([C@@H](C)O)NC1=O [Compound 023] ([Mpa][Tle]YPT[Trp(7-aza)][αMeK]AY[αMeV]TC-NH2; linker 1-12 via mXylylene)
1 to 100 nM		CC(C)[C@]1(C)NC(=O)[C@H](Cc2ccc(O)cc2)NC(=O)[C@H](C)NC(=O)[C@](C)(CCCN)NC(=O)[C@H](Cc2c[nH]c3ncccc23)NC(=O)[C@H]([C@@H](C)O)NC(=O)[C@@H]2CCCN2C(=O)[C@H](Cc2ccc(O)cc2)NC(=O)[C@H](C(C)(C)C)NC(=O)CCSCc2cccc(c2)CSC[C@H](C(N)=O)NC(=O)[C@H]([C@@H](C)O)NC1=O [Compound 025] ([Mpa][Tle]YPT[Trp(7-aza)][αMeOrn]AY[αMeV]T[dC]-NH2; linker 1-12 via mXylylene)
